Experimental data as given in ChEMBL document CHEMBL5500324, “The potential of marine-derived piperazine alkaloids: Sources, structures and bioactivities” (Eur J Med Chem, 2024).
pIC50: −log10 of the molar value. Values after ≈ are worked out from the molar mass of the structure shown.

What was measured:
[1] = tested on: PC-3; assay: Cytotoxicity against human PC-3 cells assessed as reduction in cell growth incubated for 48 hrs by CCK-8 assay; assay type: functional, cell-based; conditions: PC-3, 48 h
[2] = tested on: U-937; assay: Cytotoxicity against human U-937 cells assessed as reduction in cell growth incubated for 48 hrs by CCK-8 assay; assay type: functional, cell-based; conditions: U-937, 48 h
[3] = tested on: HeLa; assay: Cytotoxicity against human HeLa cells assessed as cell growth inhibition; assay type: functional, cell-based
[4] = tested on: L1210; assay: Cytotoxicity against mouse L1210 assessed as cell growth inhibition; assay type: functional, cell-based
[5] = tested on: Bel-7402; assay: Cytotoxicity against human Bel-7402 cells assessed as reduction in cell growth incubated for 72 hrs measured by MTT assay; assay type: functional, cell-based; conditions: Bel-7402, 72 h
[6] = tested on: HepG2; assay: Antiproliferative activity against human HepG2 cells assessed as reduction in cell viability by CCK-8 assay; assay type: functional, cell-based
[7] = tested on: HCT-116; assay: Cytotoxicity against human HCT-116 cells assessed as reduction in cell viability incubated for 48 hrs by MTT assay; assay type: functional, cell-based; conditions: HCT-116, 48 h
[8] = tested on: A549; assay: Cytotoxicity against human A549 cells assessed as reduction in cell viability incubated for 48 hrs by MTT assay; assay type: functional, cell-based; conditions: A549, 48 h
[9] = Cytotoxicity against human Huh7.5 cells assessed as reduction in cell viability incubated for 72 hrs by CCK-8 assay; assay type: toxicity, cell-based, Huh-7.5
[10] = tested on: HeLa; assay: Cytotoxicity against human HeLa cells assessed as reduction in cell viability incubated for 24 hrs by CCK-8 assay; assay type: functional, cell-based
[11] = tested on: A549; assay: Cytotoxicity against human A549 cells assessed as reduction in cell viability incubated for 24 hrs by CCK-8 assay; assay type: functional, cell-based; conditions: A549, 24 h
[12] = tested on: HCT-116; assay: Antiproliferative activity against human HCT-116 cells assessed as reduction in cell growth; assay type: functional, cell-based
[13] = tested on: A549; assay: Antiproliferative activity against human A549 cells assessed as reduction in cell viability incubated for 72 hrs by CCK-8 assay; assay type: functional, cell-based; conditions: A549, 72 h
[14] = tested on: MCF7; assay: Antiproliferative activity against human MCF7 cells assessed as reduction in cell viability incubated for 72 hrs by MTT assay; assay type: functional, cell-based; conditions: MCF7, 72 h
[15] = tested on: AGS; assay: Antiproliferative activity against human AGS cells assessed as reduction in cell viability measured for 48 hrs by Cell-Titer Glo assay; assay type: functional, cell-based
[16] = tested on: U-937; assay: Cytotoxicity against human U-937 cells assessed as inhibition of cell growth; assay type: functional, cell-based
[17] = tested on: HL-60; assay: Cytotoxicity against human HL-60 cells assessed as reduction in cell growth; assay type: functional, cell-based
[18] = tested on: T47D; assay: Antiproliferative activity against human T47D cells incubated for 48 hrs by MTT assay; assay type: functional, cell-based
[19] = tested on: RKO; assay: Cytotoxicity against human RKO cells assessed as inhibition of cell growth measured after 48 hrs by MTT assay; assay type: functional, cell-based
[20] = tested on: HCT-116; assay: Cytotoxicity against human HCT-116 cells assessed as reduction in cell viability incubated for 24 hrs by MTT assay; assay type: functional, cell-based; conditions: HCT-116, 24 h
[21] = tested on: HEK293; assay: Cytotoxicity against HEK293 cells assessed as cell growth inhibition; assay type: functional, cell-based; conditions: Homo sapiens
[22] = tested on: A549; assay: Cytotoxicity against human A549 cells assessed as inhibition of cell growth incubated for 72 hrs by SRB assay; assay type: functional, cell-based; conditions: A549, 72 h
[23] = tested on: HepG2; assay: Cytotoxicity against human HepG2 cells assessed as inhibition of cell growth incubated for 72 hrs by SRB assay; assay type: functional, cell-based; conditions: HepG2, 72 h
[24] = tested on: SF-268; assay: Cytotoxicity against human SF-268 cells assessed as inhibition of cell growth incubated for 72 hrs by SRB assay; assay type: functional, cell-based; conditions: SF-268, 72 h
[25] = tested on: MCF7; assay: Cytotoxicity against human MCF7 cells assessed as inhibition of cell growth incubated for 72 hrs by SRB assay; assay type: functional, cell-based; conditions: MCF7, 72 h
[26] = Cytotoxicity against human AML1 cells expressing FLT3-ITD mutant assessed as cell viability; assay type: functional, cell-based

SMILES: COc1ccc2c3c([nH]c2c1)[C@H](C=C(C)C)N1C(=O)[C@@H]2CCCN2C(=O)[C@]1(O)[C@H]3O
- pIC50 [1]: 5.18
- pIC50 [2]: 5.74

SMILES: COc1ccc2c3c(n(CC=C(C)C)c2c1)[C@H](C=C(C)C)N1C(=O)[C@@H]2CCCN2C(=O)[C@]1(O)[C@H]3O
- pIC50 [1]: 4.36
- pIC50 [2]: 4.85

SMILES: CC1(C)C=Cc2c(ccc3c2N(O)C(=O)[C@@]32C[C@@]34NC(=O)[C@]5(CCCN5C3=O)C[C@H]4C2(C)C)O1
- IC50 [3]: 27 µg/mL (≈ 58.2 µM)
- IC50 [4]: 29 µg/mL (≈ 62.6 µM)

SMILES: C[C@H]1CCN2C[C@]34CC5(C(=O)Nc6c5ccc5c6OC=CC(C)(C)O5)C(C)(C)[C@@H]3C[C@]12C(=O)N4C (stereo not given in full)
- pIC50 [5]: 5.72

SMILES: CS[C@@]12CC3=CC=C[C@H](OC(C)=O)[C@H]3N1C(=O)[C@]1(SC)CC3=CC=C[C@H](O)[C@H]3N1C2=O
- IC50 [6]: 21 µg/mL (≈ 45.6 µM)

SMILES: C[C@H]1CCN2C[C@]34CC5(C(=O)Nc6c5cc(O)c5c6OC=CC(C)(C)O5)C(C)(C)[C@@H]3C[C@]12C(=O)N4C (stereo not given in full)
- pIC50 [5]: 5.48

SMILES: COc1ccc(C[C@H]2NC(=O)[C@@H](CC(C)C)NC2=O)cc1O
- IC50 [7]: 75.4 µg/mL (≈ 246 µM)
- IC50 [8]: 35.4 µg/mL (≈ 116 µM)

SMILES: CO[C@@H]1CC(=O)[C@@H]2C[C@@]34SS[C@]5(C[C@H]6C(=O)CC(=O)[C@H](O)[C@H]6N5C3=O)C(=O)N4[C@@H]2[C@H]1O
- IC50 at 72 h [9]: 9.52 µM

SMILES: CC[C@H](C)[C@]1(O)NC(=O)[C@@H](Cc2ccccc2)N2C(=O)C3=C(NC21)OC=CC=C3 (stereo not given in full)
- pIC50 [10]: 3.94
- pIC50 [11]: 4.21

SMILES: CS[C@@]12CC3=CC=CC[C@H]3N1C(=O)[C@]1(SC)CC3=CC=C[C@H](OC(C)=O)[C@H]3N1C2=O
- IC50 [6]: 48 µg/mL (≈ 108 µM)

SMILES: CC(=O)O[C@H]1C=COC=C2C[C@@]34SS[C@]5(Cc6ccccc6N5C3=O)C(=O)N4[C@@H]21
- pIC50 [12]: 4.28
- pIC50 [13]: 4.64
- pIC50 [14]: 4.51
- pIC50 [15]: 4.54

SMILES: CC(C)=CCC/C(C)=C/COc1ccc(/C=C2\NC(=O)[C@H](C)N(O)C2=O)cc1
- IC50 [16]: 11.6 µg/mL (≈ 30.2 µM)
- IC50 [17]: 11.6 µg/mL (≈ 30.2 µM)
- IC50 [18]: 11.6 µg/mL (≈ 30.2 µM)

SMILES: CN1C(=O)[C@]2(S)CC3=CC=C[C@H](O)[C@H]3N2C(=O)[C@]1(S)CO
- pIC50 [19]: 6.39
- pIC50 [20]: 6.37
- pIC50 [21]: 5.90

SMILES: CN1C(=O)[C@@]23CSC4=C(C(=O)c5ccccc5C4=O)N2C[C@@H]1CO3
- pIC50 [22]: 4.87
- pIC50 [23]: 4.92
- pIC50 [24]: 4.92
- pIC50 [25]: 4.68

SMILES: CC1(C)C=Cc2c(ccc3c2N[C@@]24N5C(=O)[C@@H]6CCCN6C(=O)[C@]5(O)C[C@@]32O[C@H](CO)C4(C)C)O1
- pIC50 [26]: 5.14

SMILES: CS[C@@]12CC3=CC=C[C@H](OC(C)=O)[C@H]3N1C(=O)[C@]1(SC)CC3=CC=C[C@H](OC(C)=O)[C@H]3N1C2=O
- IC50 [6]: 42 µg/mL (≈ 83.6 µM)

SMILES: C=CC(C)(C)[C@]1(C[C@H]2NC(=O)[C@H]3CCCN3C2=O)C(=O)Nc2c1ccc1c2C=CC(C)(C)O1
- IC50 [3]: 50 µg/mL (≈ 111 µM)
- IC50 [4]: 22 µg/mL (≈ 48.9 µM)

SMILES: CC(C)/C=c1/[nH]c(=O)/c(=C/c2ccccc2)n(C)c1=O
- IC50 [7]: > 100 µg/mL
- IC50 [8]: 89.4 µg/mL (≈ 331 µM)
